Among the data in patent US9624170B2, “4-(piperrazin-1-yl)-pyrrolidin-2-one compounds as monoacylglycerol lipase (MAGL) inhibitors” (TAKEDA PHARMACEUTICAL COMPANY LIMITED, priority 2013, dated 2017) are inhibition values, retold here.

One may read the inhibition as the relative decrease from the control value, in per cent.

SMILES strings stand for the structures.

In the experiment the target is T1, human MAGL (His-hMAGL) (Homo sapiens, UniProt Q99685).
T1 construct: made in house; host or cells: Escherichia coli BL21(DE3)
T1 sequence (Q99685 1-303): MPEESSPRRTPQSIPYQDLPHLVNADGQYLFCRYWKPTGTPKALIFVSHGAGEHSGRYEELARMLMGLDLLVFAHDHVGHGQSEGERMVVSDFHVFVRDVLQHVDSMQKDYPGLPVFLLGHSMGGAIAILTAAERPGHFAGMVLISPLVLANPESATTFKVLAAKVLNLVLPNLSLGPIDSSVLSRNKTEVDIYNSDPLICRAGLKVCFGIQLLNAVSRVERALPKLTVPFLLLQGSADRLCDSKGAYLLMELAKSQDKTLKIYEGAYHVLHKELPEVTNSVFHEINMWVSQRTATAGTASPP
Kind of experiment: Measurement of MAGL inhibitory activity by mass spectrometry. The conditions noted are these: MAGL inhibitory rate, test compound 10 μM, His-hMAGL, substrate 2-arachidonylglycerol, RapidFire-mass spectrometry. The format is biochemical. In outline: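 His-tagged human MAGL was reacted with 150 μM 2-arachidonylglycerol substrate (stock, added by 5 μL) for 10 min at room temperature, then stopped with formic acid. Arachidonic acid product was quantified by RapidFire–triple-quadrupole MS in negative SRM mode, corrected by arachidonic acid-d8, and converted to percent inhibition.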
On to `O=C(c1cscn1)N1CCN([C@@H]2CC(=O)N(c3ccc4c(c3)CCN4c3ncc(C(F)(F)F)cn3)C2)CC1` [Example 384, (4R)-4-(4-(1,3-thiazol-4-ylcarbonyl)piperazin-1-yl)-1-(1-(5-(trifluoromethyl)pyrimidin-2-yl)-2,3-dihydro-1H-indol-5-yl)pyrrolidin-2-one], for which the inhibition at 10 µM turned out to be 99%.
For `O=C(c1nccs1)N1CCN([C@@H]2CC(=O)N(c3ccc4c(c3)CCN4c3cc(C(F)(F)F)ncn3)C2)CC1` [Example 385, (4R)-4-(4-(1,3-thiazol-2-ylcarbonyl)piperazin-1-yl)-1-(1-(6-(trifluoromethyl)pyrimidin-4-yl)-2,3-dihydro-1H-indol-5-yl)pyrrolidin-2-one] the value was 100%.
The figure for `O=C(c1nccs1)N1CCN(C2CC(=O)N(c3ccc4oc(-c5ccc(F)cc5)nc4c3)C2)CC1` (stereo not shown) [Example 386, 1-(2-(4-fluorophenyl)-1,3-benzoxazol-5-yl)-4-(4-(1,3-thiazol-2-ylcarbonyl)piperazin-1-yl)pyrrolidin-2-one] is 99%.
With `O=C(c1nccs1)N1CCN(C2CC(=O)N(c3ccc4nc(-c5ccccc5)oc4c3)C2)CC1` (stereo not shown) [Example 387, 1-(2-phenyl-1,3-benzoxazol-6-yl)-4-(4-(1,3-thiazol-2-ylcarbonyl)piperazin-1-yl)pyrrolidin-2-one], the inhibition at 10 µM stood at 97%.
On to `O=C(c1nccs1)N1CCN([C@@H]2CC(=O)N(c3ccc4c(c3)CCN4c3ccnc(C(F)(F)F)n3)C2)CC1` [Example 388, (4R)-4-(4-(1,3-thiazol-2-ylcarbonyl)piperazin-1-yl)-1-(1-(2-(trifluoromethyl)pyrimidin-4-yl)-2,3-dihydro-1H-indol-5-yl)pyrrolidin-2-one], for which the inhibition at 10 µM was 99%.
The figure for `CC(C)(C)OC(=O)N1CCc2cc(N3CC(N4CCN(c5ncccn5)CC4)CC3=O)ccc21` (stereo not shown) [Example 389, tert-butyl 5-(2-oxo-4-(4-(pyrimidin-2-yl)piperazin-1-yl)pyrrolidin-1-yl)indoline-1-carboxylate] is 98%; for `O=C(c1nccs1)N1CCN([C@@H]2CC(=O)N(c3ccc4c(c3)CCN4c3cnc(C(F)(F)F)cn3)C2)CC1` [Example 390, (4R)-4-(4-(1,3-thiazol-2-ylcarbonyl)piperazin-1-yl)-1-(1-(5-(trifluoromethyl)pyrazin-2-yl)-2,3-dihydro-1H-indol-5-yl)pyrrolidin-2-one] it is 96%.
For `O=C(c1nccs1)N1CCN([C@@H]2CC(=O)N(c3ccc4c(c3)CCN4c3cnc(C(F)(F)F)nc3)C2)CC1` [Example 391, (4R)-4-(4-(1,3-thiazol-2-ylcarbonyl)piperazin-1-yl)-1-(1-(2-(trifluoromethyl)pyrimidin-5-yl)-2,3-dihydro-1H-indol-5-yl)pyrrolidin-2-one] the value was 90%.
The figure for `O=C(c1nccs1)N1CCN(C2CC(=O)N(c3ccc4c(c3)CCN4C(=O)Cc3ccccc3)C2)CC1` (stereo not shown) [Example 392, 1-(1-(phenylacetyl)-2,3-dihydro-1H-indol-5-yl)-4-(4-(1,3-thiazol-2-ylcarbonyl)piperazin-1-yl)pyrrolidin-2-one] is 99%.
On to `O=C(c1nccs1)N1CCN(C2CC(=O)N(c3ccc4c(c3)CCN4C(=O)Cc3ccc(Cl)cc3)C2)CC1` (stereo not shown) [Example 393, 1-(1-((4-chlorophenyl)acetyl)-2,3-dihydro-1H-indol-5-yl)-4-(4-(1,3-thiazol-2-ylcarbonyl)piperazin-1-yl)pyrrolidin-2-one], for which the inhibition at 10 µM came out at 93%.
For `O=C(c1nccs1)N1CCN(C2CC(=O)N(c3ccc4c(c3)CCN4C(=O)Cc3cccc(Cl)c3)C2)CC1` (stereo not shown) [Example 394, 1-(1-((3-Chlorophenyl)acetyl)-2,3-dihydro-1H-indol-5-yl)-4-(4-(1,3-thiazol-2-ylcarbonyl)piperazin-1-yl)pyrrolidin-2-one] the value was 98%; for `O=C(c1nccs1)N1CCN(C2CC(=O)N(c3ccc4c(c3)CCN4C(=O)Cc3ccccc3Cl)C2)CC1` (stereo not shown) [Example 395, 1-(1-((2-chlorophenyl)acetyl)-2,3-dihydro-1H-indol-5-yl)-4-(4-(1,3-thiazol-2-ylcarbonyl)piperazin-1-yl)pyrrolidin-2-one], 102%; for `O=C(c1nccs1)N1CCN(C2CC(=O)N(c3ccc4c(c3)CCN4C(=O)c3ccccc3)C2)CC1` (stereo not shown) [Example 396, 1-(1-benzoyl-2,3-dihydro-1H-indol-5-yl)-4-(4-(1,3-thiazol-2-ylcarbonyl)piperazin-1-yl)pyrrolidin-2-one], 97%.
Take `CC(C)CC(=O)N1CCc2cc(N3CC(N4CCN(C(=O)c5nccs5)CC4)CC3=O)ccc21` (stereo not shown) [Example 397, 1-(1-(3-methylbutanoyl)-2,3-dihydro-1H-indol-5-yl)-4-(4-(1,3-thiazol-2-ylcarbonyl)piperazin-1-yl)pyrrolidin-2-one]: the inhibition at 10 µM was 101%.
The figure for `O=C(c1nccs1)N1CCN(C2CC(=O)N(c3ccc4c(c3)CCN4C(=O)CC3CC3)C2)CC1` (stereo not shown) [Example 398, 1-(1-(cyclopropylacetyl)-2,3-dihydro-1H-indol-5-yl)-4-(4-(1,3-thiazol-2-ylcarbonyl)piperazin-1-yl)pyrrolidin-2-one] is 100%.
For `O=C(c1nccs1)N1CCN(C2CC(=O)N(c3ccc4c(c3)CCN4C(=O)CC(F)(F)F)C2)CC1` (stereo not shown) [Example 399, 4-(4-(1,3-thiazol-2-ylcarbonyl)piperazin-1-yl)-1-(1-(3,3,3-trifluoropropanoyl)-2,3-dihydro-1H-indol-5-yl)pyrrolidin-2-one] the value was 95%.
Regarding `O=C(c1nccs1)N1CCN(C2CC(=O)N(c3ccc4c(c3)CCN4C(=O)C3CCOCC3)C2)CC1` (stereo not shown) [Example 400, 1-(1-(tetrahydro-2H-pyran-4-ylcarbonyl)-2,3-dihydro-1H-indol-5-yl)-4-(4-(1,3-thiazol-2-ylcarbonyl)piperazin-1-yl)pyrrolidin-2-one], the inhibition at 10 µM worked out at 96%.
For `O=C(c1nccs1)N1CCN(C2CC(=O)N(c3ccc4c(c3)CCN4C(=O)CC3CCOCC3)C2)CC1` (stereo not shown) [Example 401, 1-(1-(tetrahydro-2H-pyran-4-ylacetyl)-2,3-dihydro-1H-indol-5-yl)-4-(4-(1,3-thiazol-2-ylcarbonyl)piperazin-1-yl)pyrrolidin-2-one] the value was 94%; for `O=C(c1nccs1)N1CCN([C@@H]2CC(=O)N(c3cc4ccn(-c5ccc(C(F)(F)F)cn5)c4cn3)C2)CC1` [Example 402, (4R)-4-(4-(1,3-thiazol-2-ylcarbonyl)piperazin-1-yl)-1-(1-(5-(trifluoromethyl)pyridin-2-yl)-1H-pyrrolo[2,3-c]pyridin-5-yl)pyrrolidin-2-one], 94%.
With `O=C1CC(N2CCN(c3ncccn3)CC2)CN1c1cc(F)cc(Br)c1` (stereo not shown) [Example 403, 1-(3-Bromo-5-fluorophenyl)-4-(4-(pyrimidin-2-yl)piperazin-1-yl)pyrrolidin-2-one], the inhibition at 10 µM is 91%.
`Cc1ncccc1-c1cc(N2CC(N3CCN(c4ncccn4)CC3)CC2=O)ccc1F` (stereo not shown) [Example 404, 1-(4-fluoro-3-(2-methylpyridin-3-yl)phenyl)-4-(4-(pyrimidin-2-yl)piperazin-1-yl)pyrrolidin-2-one]: the inhibition at 10 µM was 96%.
As for `O=C(c1cscn1)N1CCN([C@@H]2CC(=O)N(c3ccc4c(c3)CCN4c3ccc(C(F)(F)F)cc3)C2)CC1` [Example 405, (4R)-4-(4-(1,3-Thiazol-4-ylcarbonyl)piperazin-1-yl)-1-(1-(4-(trifluoromethyl)phenyl)-2,3-dihydro-1H-indol-5-yl)pyrrolidin-2-one], the inhibition at 10 µM was 103%.
For `Cc1ncccc1-c1cc(F)cc(N2CC(N3CCN(c4ncccn4)CC3)CC2=O)c1` (stereo not shown) [Example 406, 1-(3-Fluoro-5-(2-methylpyridin-3-yl)phenyl)-4-(4-(pyrimidin-2-yl)piperazin-1-yl)pyrrolidin-2-one] the value was 98%.
For `COc1cnc(N2CCc3cc(N4C[C@H](N5CCN(C(=O)c6nccs6)CC5)CC4=O)ccc32)nc1` [Example 407, (4R)-1-(1-(5-methoxypyrimidin-2-yl)-2,3-dihydro-1H-indol-5-yl)-4-(4-(1,3-thiazol-2-ylcarbonyl)piperazin-1-yl)pyrrolidin-2-one] the value was 104%; for `CC(C)(C)OC(=O)N1CCc2cc(N3C[C@H](N4CCN(C(=O)c5cscn5)CC4)CC3=O)ccc21` [Example 408, tert-butyl 5-((4R)-2-oxo-4-(4-(1,3-thiazol-4-ylcarbonyl)piperazin-1-yl)pyrrolidin-1-yl)indoline-1-carboxylate], 103%; for `CC(C)(C)CC(=O)N1CCc2cc(N3CC(N4CCN(c5ncccn5)CC4)CC3=O)ccc21` (stereo not shown) [Example 409, 1-(1-(3,3-dimethylbutanoyl)-2,3-dihydro-1H-indol-5-yl)-4-(4-(pyrimidin-2-yl)piperazin-1-yl)pyrrolidin-2-one], 94%.
For `COc1ccc(CC(=O)N2CCc3cc(N4CC(N5CCN(c6ncccn6)CC5)CC4=O)ccc32)cn1` (stereo not shown) [Example 410, 1-(1-((6-methoxypyridin-3-yl)acetyl)-2,3-dihydro-1H-indol-5-yl)-4-(4-(pyrimidin-2-yl)piperazin-1-yl)pyrrolidin-2-one] the value was 80%.
As for `O=C1CC(N2CCN(c3ncccn3)CC2)CN1c1ccc2c(c1)CCN2C(=O)Cc1ccc(F)cc1` (stereo not shown) [Example 413, 1-(1-((4-fluorophenyl)acetyl)-2,3-dihydro-1H-indol-5-yl)-4-(4-(pyrimidin-2-yl)piperazin-1-yl)pyrrolidin-2-one], the inhibition at 10 µM came out at 94%.
